Assays:
[1] = system: release of histamine induced by passive peritoneal anaphylaxis (PPA) reaction; assay: Passive Peritoneal Anaphylaxis (PPA) test: inhibition of histamine release; format: in vivo, Sprague-Dawley male rats; settings: ip, 5 min; rat PPA; 1 mg/kg intraperitoneally 30 seconds before egg albumin
Experimental: (§1) 1 mg of egg albumin dissolved in 0.2 ml of saline was intramuscularly administered to each of Sprague-Dawley male rats weighing 300 to 350 g (Charles River Japan Inc.), and then 1 ml of a suspension of sterilized Bordetella pertussis (2×10^10 cells) in saline was administered intraperitoneally to the rats. After 14 days, blood was drawn from the rats to obtain an antiserum.
(§2) The test was conducted according to the method of Orange et al [Orange, R. P., Stechschulte, D. J., Austen, K. F., J. Immunol., 105, pp1087-1095 (1970)]. Sprague-Dawley male rats weighing 250 to 400 g (5 rats per group) were passively sensitized by administering 5 ml of 5-fold dilution antiserum (prepared by diluting the above antiserum with saline). 2 hours later, 5 ml of an egg albumin solution prepared by dissolving 2 mg of egg albumin in phosphate buffered saline containing 0.9 mM of calcium chloride was administered intraperitoneally to the rats. After 5 minutes, the rats were sacrificed by decapitation, and peritoneal fluid was pooled and centrifuged at 300×G at 4° C. for 10 minutes. Then, amounts of SRS-A and histamine in the supernatant were determined.
The quantitative determination of histamine was carried out according to the method of Shore et al [Shore, P. A., Bunkhalter, A. H., Cohn, V. H., J. Pharmacol. Exp. Ther., 127, pp182-186 (1959)], and the total released amount of histamine per rat (μg/rat) was calculated.
(§3) In this test, the test compound of this invention was administered as follows. 2 mg of a test compound was dissolved in 10 ml of phosphate buffered saline containing 0.9 mM of calcium chloride, an equimolar amount of sodium hydroxide to test compound, 2% of dimethyl sulfoxide and 2% of ethanol, and the solution was administered intraperitoneally to the rats at a dose of 1 mg/kg 30 seconds before the injection of egg albumin for inducing PPA. For a control group, the same solution without test compound and sodium hydroxide was administered.
(§4) The inhibitory activity on release of histamine and SRS-A by the PPA reaction in the treated group was calculated by the following formula: [formula] wherein: a represents a mean value of released amount in the control group.
(§5) b represents a mean value of released amount in the treated group.
(§6) c represents a mean value of spontaneously released amount.

[2] = system: release of SRS-A induced by passive peritoneal anaphylaxis (PPA) reaction; assay: Passive Peritoneal Anaphylaxis (PPA) test: inhibition of SRS-A release; format: in vivo, Sprague-Dawley male rats; settings: rat PPA
Experimental: as §1, §2
The quantitative determination of SRS-A was carried out according to the method of Stechschulte et al [Stechschulte, D. J., Auste, K. F., Bloch, K. J., J. Exp. Med., 125, pp127-147 (1967)] using a guinea pig ileum specimen in the presence of mepyramine and atropine. The amount of SRS-A was expressed in terms of unit, i.e., one unit of SRS-A activity was defined as the concentration required to produce a contraction of guinea pig ileum equal in amplitude to that produced by 5 ng of histamine, and the total released amount of SRS-A per rat (unit/rat) was calculated.
as §3, §4, §5, §6

[3] = system: passive cutaneous anaphylaxis (PCA) reaction; assay: Passive cutaneous anaphylaxis (PCA) test; format: in vivo, Sprague-Dowley male rats; settings: rat PCA, oral administration
Experimental: as §1
In this test, the antiserum described in Test Example 1 was used after it was diluted with saline so as to provide a blue spot having a diameter of about 10 mm in the following control group.
Sprague-Dowley male rats weighing about 180 g (5 rats per group) were sensitized by injecting 0.05 ml of the diluted antiserum into the shaved dorsal skin. 48 hours later, the animals were challenged with 1 ml of saline containing 5 mg of egg albumin and 5 mg of Evans blue dye administered via a tail vein. 30 minutes later, the rats were sacrificed by decapitation. The dorsal skin was removed, and the long and short axis of the each wheal was measured.
In this test, the test compound was administered as follows. 20 mg of a test compound was suspended in a 0.5% CMC aqueous solution, and the suspension was administered to each of the rats in an amount of 20 mg/kg 30 minutes before the antigen challenge. For a control group, only a 0.5% CMC solution was administered.
The inhibitory activity on the PCA reaction in the treated group was calculated by the following formula: [formula] wherein: a represents a mean value of blue spot area in the control group.
b represents a mean value of blue spot area in the treated group.

[4] = system: passive cutaneous anaphylaxis (PCA) reaction; assay: Passive cutaneous anaphylaxis (PCA) test; format: in vivo, Sprague-Dowley male rats; settings: 0.5 h; rat PCA; DSCG administered at 100 mg/kg of body weight
[5] = background art; cited from earlier work

O=C(O)c1cc(=O)c2c(OCC(O)COc3cccc4oc(C(=O)O)cc(=O)c34)cccc2o1 [DSCG, Sodium Cromoglycate, reference compound]
inhibition in vivo at 1 mg/kg [1]: 93% | inhibition in vivo at 1 mg/kg ([2]; ip, 5 min, 1 mg/kg intraperitoneally 30 seconds before egg albumin): 0% | inhibition of release of SRS-A in the PPA reaction (in words) [2]: did not inhibit the release of SRS-A in the PPA reaction | inhibition of the PCA reaction in oral administration (in words) [3]: did not inhibit the PCA reaction in oral administration | inhibition in vivo at 100 mg/kg [4]: 8% | effectiveness in oral administration (in words) [5]: not effective in oral administration

— US4652646A, “Thiazolo[3,2-a][1,2,3]triazolo[4,5-d]pyrimidine and [1,3,4]thiadiazolo[3,2-a][1,2,3]triazolo[4,5-d]pyrimidine derivatives” (Daiichi Seiyaku Co., Ltd., priority 1984, dated 1987)
